Values after ≈ are worked out from the molar mass of the structure shown.
Tested on: infectious agents (strains tested)
Assay: organism not typed
Type: cell-based

## C[C@@H]1[C@H](O)[C@@H](C)/C=C/C=C/C=C/C=C/C=C/C=C/C=C/[C@H](O[C@@H]2O[C@H](C)[C@@H](O)[C@H](N)[C@@H]2O)C[C@@H]2O[C@](O)(C[C@@H](O)C[C@@H](O)[C@H](O)CC[C@@H](O)C[C@@H](O)CC(=O)O[C@H]1C)C[C@H](O)[C@H]2C(=O)O [Amphotericin]
Absidia spp, read-out: Geometric Mean MIC
  MIC: 0.545 µg/mL (≈ 0.59 µM)
Absidia spp, read-out: MIC[90]
  MIC: 0.25 to 2 µg/mL (≈ 0.271 to 2.16 µM)
Alternaria spp, read-out: Geometric Mean MIC
  MIC: 0.852 µg/mL (≈ 0.922 µM)
Alternaria spp, read-out: MIC[90]
  MIC: 4 µg/mL (≈ 4.33 µM)
Apophysomyces spp, read-out: Geometric Mean MIC
  MIC: 0.5 µg/mL (≈ 0.541 µM)
Apophysomyces spp, read-out: MIC[90]
  MIC: 0.031 to 4 µg/mL (≈ 0.0335 to 4.33 µM)
Aspergillus flavus, read-out: Geometric Mean MIC
  MIC: 0.91 µg/mL (≈ 0.985 µM)
Aspergillus flavus, read-out: MIC[90]
  MIC: 2 µg/mL (≈ 2.16 µM)
Aspergillus fumigatus, read-out: Geometric Mean MIC
  MIC: 0.683 µg/mL (≈ 0.739 µM)
Aspergillus fumigatus, read-out: MIC[90]
  MIC: 1 µg/mL (≈ 1.08 µM)
Aspergillus nidulans, read-out: Geometric Mean MIC
  MIC: 0.758 µg/mL (≈ 0.82 µM)
Aspergillus nidulans, read-out: MIC[90]
  MIC: 2 µg/mL (≈ 2.16 µM)
Aspergillus niger, read-out: Geometric Mean MIC
  MIC: 0.36 µg/mL (≈ 0.39 µM)
Aspergillus niger, read-out: MIC[90]
  MIC: 1 µg/mL (≈ 1.08 µM)
Aspergillus sydowii, read-out: Geometric Mean MIC
  MIC: 1.26 µg/mL (≈ 1.36 µM)
Aspergillus sydowii, read-out: MIC[90]
  MIC: 1 to 2 µg/mL (≈ 1.08 to 2.16 µM)
Aspergillus terreus, read-out: Geometric Mean MIC
  MIC: 1.76 µg/mL (≈ 1.9 µM)
Aspergillus terreus, read-out: MIC[90]
  MIC: 4 µg/mL (≈ 4.33 µM)
Aspergillus ustus, read-out: Geometric Mean MIC
  MIC: 0.673 µg/mL (≈ 0.728 µM)
Aspergillus ustus, read-out: MIC[90]
  MIC: 0.25 to 1 µg/mL (≈ 0.271 to 1.08 µM)
Bipolaris spp, read-out: Geometric Mean MIC
  MIC: 0.25 µg/mL (≈ 0.271 µM)
Bipolaris spp, read-out: MIC[90]
  MIC: 0.25 µg/mL (≈ 0.271 µM)
Bjerkandera adusta, read-out: Geometric Mean MIC
  MIC: 0.215 µg/mL (≈ 0.233 µM)
Bjerkandera adusta, read-out: MIC[90]
  MIC: 0.25 µg/mL (≈ 0.271 µM)
Blastomyces dermatitidis, read-out: Geometric Mean MIC
  MIC: 0.153 µg/mL (≈ 0.166 µM)
Blastomyces dermatitidis, read-out: MIC[90]
  MIC: 0.5 µg/mL (≈ 0.541 µM)
Candida albicans, read-out: Geometric Mean MIC
  MIC: 0.686 µg/mL (≈ 0.742 µM)
Candida albicans, read-out: MIC[90]
  MIC: 1 µg/mL (≈ 1.08 µM)
Candida dubliniensis, read-out: Geometric Mean MIC
  MIC: 0.513 µg/mL (≈ 0.555 µM)
Candida dubliniensis, read-out: MIC[90]
  MIC: 1 µg/mL (≈ 1.08 µM)
Candida tropicalis, read-out: Geometric Mean MIC
  MIC: 0.774 µg/mL (≈ 0.838 µM)
Candida tropicalis, read-out: MIC[90]
  MIC: 1 µg/mL (≈ 1.08 µM)
Clavispora lusitaniae, Candida lusitaniae, read-out: Geometric Mean MIC
  MIC: 0.506 µg/mL (≈ 0.548 µM)
Clavispora lusitaniae, Candida lusitaniae, read-out: MIC[90]
  MIC: 1 µg/mL (≈ 1.08 µM)
Coccidioides immitis, read-out: Geometric Mean MIC, Coccidioides immitis
  MIC: 0.39 µg/mL (≈ 0.422 µM)
Coccidioides immitis, read-out: MIC[90], Coccidioides immitis
  MIC: 0.5 µg/mL (≈ 0.541 µM)
Cryptococcus neoformans, read-out: Geometric Mean MIC
  MIC: 0.667 µg/mL (≈ 0.722 µM)
Cryptococcus neoformans, read-out: MIC[90]
  MIC: 1 µg/mL (≈ 1.08 µM)
Curvularia spp, read-out: Geometric Mean MIC
  MIC: 0.5 µg/mL (≈ 0.541 µM)
Curvularia spp, read-out: MIC[90]
  MIC: 0.5 µg/mL (≈ 0.541 µM)
Debaryomyces hansenii, Candida famata, read-out: Geometric Mean MIC
  MIC: 0.841 µg/mL (≈ 0.91 µM)
Debaryomyces hansenii, Candida famata, read-out: MIC[90]
  MIC: 2 µg/mL (≈ 2.16 µM)
Diutina rugosa, Candida rugosa, read-out: Geometric Mean MIC
  MIC: 0.665 µg/mL (≈ 0.72 µM)
Diutina rugosa, Candida rugosa, read-out: MIC[90]
  MIC: 1 µg/mL (≈ 1.08 µM)
Dujonia zeylanoides, Candida zeylanoides, read-out: Geometric Mean MIC
  MIC: 1 µg/mL (≈ 1.08 µM)
Dujonia zeylanoides, Candida zeylanoides, read-out: MIC[90]
  MIC: 1 µg/mL (≈ 1.08 µM)
Exophiala dermatidis, read-out: Geometric Mean MIC
  MIC: 0.5 µg/mL (≈ 0.541 µM)
Exophiala dermatidis, read-out: MIC[90]
  MIC: 0.5 µg/mL (≈ 0.541 µM)
Exophiala dermatitidis, Wangiella dermatitidis, read-out: Geometric Mean MIC
  MIC: 0.63 µg/mL (≈ 0.682 µM)
Exophiala dermatitidis, Wangiella dermatitidis, read-out: MIC[90]
  MIC: 0.25 to 1 µg/mL (≈ 0.271 to 1.08 µM)
Exophiala jeanselmei, read-out: Geometric Mean MIC
  MIC: 0.66 µg/mL (≈ 0.714 µM)
Exophiala jeanselmei, read-out: MIC[90]
  MIC: 1 µg/mL (≈ 1.08 µM)
Exophiala moniliae, read-out: Geometric Mean MIC
  MIC: 0.177 µg/mL (≈ 0.192 µM)
Exophiala moniliae, read-out: MIC[90]
  MIC: 0.125 to 0.25 µg/mL (≈ 0.135 to 0.271 µM)
Fonsecae pedrosoi, read-out: Geometric Mean MIC
  MIC: 1 µg/mL (≈ 1.08 µM)
Fonsecae pedrosoi, read-out: MIC[90]
  MIC: 1 µg/mL (≈ 1.08 µM)
Fusarium spp, read-out: Geometric Mean MIC
  MIC: 1.2 µg/mL (≈ 1.3 µM)
Fusarium spp, read-out: MIC[90]
  MIC: 2 µg/mL (≈ 2.16 µM)
Hansenula anomala, Pichia anomala, read-out: Geometric Mean MIC
  MIC: 0.707 µg/mL (≈ 0.765 µM)
Hansenula anomala, Pichia anomala, read-out: MIC[90]
  MIC: 1 µg/mL (≈ 1.08 µM)
Histoplasma capsulatum, read-out: Geometric Mean MIC, Histoplasma capsulatum
  MIC: 0.25 µg/mL (≈ 0.271 µM)
Histoplasma capsulatum, read-out: MIC[90], Histoplasma capsulatum
  MIC: 0.5 µg/mL (≈ 0.541 µM)
Kluyveromyces marxianus, Candida kefyr, read-out: Geometric Mean MIC
  MIC: 0.779 µg/mL (≈ 0.843 µM)
Kluyveromyces marxianus, Candida kefyr, read-out: MIC[90]
  MIC: 1 µg/mL (≈ 1.08 µM)
Kluyveromyces marxianus, read-out: Geometric Mean MIC
  MIC: 1 µg/mL (≈ 1.08 µM)
Kluyveromyces marxianus, read-out: MIC[90]
  MIC: 1 µg/mL (≈ 1.08 µM)
Lodderomyces parapsilosis, Candida parapsilosis, read-out: Geometric Mean MIC
  MIC: 0.761 µg/mL (≈ 0.824 µM)
Lodderomyces parapsilosis, Candida parapsilosis, read-out: MIC[90]
  MIC: 1 µg/mL (≈ 1.08 µM)
Meyerozyma guilliermondii, Candida guilliermondii, read-out: Geometric Mean MIC
  MIC: 0.553 µg/mL (≈ 0.598 µM)
Meyerozyma guilliermondii, Candida guilliermondii, read-out: MIC[90]
  MIC: 1 µg/mL (≈ 1.08 µM)
Mucor spp, read-out: Geometric Mean MIC
  MIC: 0.274 µg/mL (≈ 0.297 µM)
Mucor spp, read-out: MIC[90]
  MIC: 1 µg/mL (≈ 1.08 µM)
Nakaseomyces glabratus, Candida glabrata, read-out: Geometric Mean MIC
  MIC: 0.798 µg/mL (≈ 0.864 µM)
Nakaseomyces glabratus, Candida glabrata, read-out: MIC[90]
  MIC: 1 µg/mL (≈ 1.08 µM)
Paecilomyces spp, read-out: Geometric Mean MIC
  MIC: 1.1 µg/mL (≈ 1.19 µM)
Paecilomyces spp, read-out: MIC[90]
  MIC: 16 µg/mL (≈ 17.3 µM)
Papiliotrema laurentii, Cryptococcus laurentii, read-out: Geometric Mean MIC
  MIC: 0.794 µg/mL (≈ 0.859 µM)
Papiliotrema laurentii, Cryptococcus laurentii, read-out: MIC[90]
  MIC: 0.5 to 1 µg/mL (≈ 0.541 to 1.08 µM)
Paracoccidioides brasiliensis, read-out: Geometric Mean MIC, Paracoccidioides brasiliensis
  MIC: 0.096 µg/mL (≈ 0.104 µM)
Paracoccidioides brasiliensis, read-out: MIC[90], Paracoccidioides brasiliensis
  MIC: 0.25 µg/mL (≈ 0.271 µM)
Penicillium spp, read-out: Geometric Mean MIC
  MIC: 1.02 µg/mL (≈ 1.11 µM)
Penicillium spp, read-out: MIC[90]
  MIC: 4 µg/mL (≈ 4.33 µM)
Pichia etchel, read-out: Geometric Mean MIC
  MIC: 0.063 µg/mL (≈ 0.0682 µM)
Pichia etchel, read-out: MIC[90]
  MIC: 0.063 µg/mL (≈ 0.0682 µM)
Pichia kudriavzevii, Candida krusei, read-out: Geometric Mean MIC
  MIC: 0.976 µg/mL (≈ 1.06 µM)
Pichia kudriavzevii, Candida krusei, read-out: MIC[90]
  MIC: 2 µg/mL (≈ 2.16 µM)
Pleurothecium obovoideum, Ramichloridium obovoideum, read-out: Geometric Mean MIC
  MIC: 1 µg/mL (≈ 1.08 µM)
Pleurothecium obovoideum, Ramichloridium obovoideum, read-out: MIC[90]
  MIC: 1 µg/mL (≈ 1.08 µM)
Rhizomucor spp, read-out: Geometric Mean MIC
  MIC: 0.063 µg/mL (≈ 0.0682 µM)
Rhizomucor spp, read-out: MIC[90]
  MIC: 0.063 µg/mL (≈ 0.0682 µM)
Rhizopus spp, read-out: Geometric Mean MIC
  MIC: 0.635 µg/mL (≈ 0.687 µM)
Rhizopus spp, read-out: MIC[90]
  MIC: 2 µg/mL (≈ 2.16 µM)
Saccharomyces cerevisiae, read-out: Geometric Mean MIC
  MIC: 0.775 µg/mL (≈ 0.839 µM)
Saccharomyces cerevisiae, read-out: MIC[90]
  MIC: 1 µg/mL (≈ 1.08 µM)
Scedosporium apiospermum, read-out: Geometric Mean MIC
  MIC: 2.27 µg/mL (≈ 2.46 µM)
Scedosporium apiospermum, read-out: MIC[90]
  MIC: 8 µg/mL (≈ 8.66 µM)
Scedosporium boydii, Pseudallescheria boydii, read-out: Geometric Mean MIC
  MIC: 1.72 µg/mL (≈ 1.86 µM)
Scedosporium boydii, Pseudallescheria boydii, read-out: MIC[90]
  MIC: 4 µg/mL (≈ 4.33 µM)
Sporothrix schenckii, read-out: Geometric Mean MIC
  MIC: 0.574 µg/mL (≈ 0.621 µM)
Sporothrix schenckii, read-out: MIC[90]
  MIC: 1 µg/mL (≈ 1.08 µM)
Trichophyton mentagrophytes, read-out: Geometric Mean MIC
  MIC: 1 µg/mL (≈ 1.08 µM)
Trichophyton mentagrophytes, read-out: MIC[90]
  MIC: 1 µg/mL (≈ 1.08 µM)
Trichophyton tonsurans, read-out: Geometric Mean MIC
  MIC: 1.26 µg/mL (≈ 1.36 µM)
Trichophyton tonsurans, read-out: MIC[90]
  MIC: 0.5 to 8 µg/mL (≈ 0.541 to 8.66 µM)
Trichosporon spp, read-out: Geometric Mean MIC
  MIC: 1.32 µg/mL (≈ 1.43 µM)
Trichosporon spp, read-out: MIC[90]
  MIC: 1 to 2 µg/mL (≈ 1.08 to 2.16 µM)
Yarrowia lipolytica, read-out: Geometric Mean MIC
  MIC: 0.5 µg/mL (≈ 0.541 µM)
Yarrowia lipolytica, read-out: MIC[90]
  MIC: 0.5 µg/mL (≈ 0.541 µM)

Source: patent US20090226527A1, “Particulate-stabilized injectable pharmacutical compositions of posaconazole” (priority 2004, published 2009)
